The subject of the assay is A. thermophilum. The assay is described as follows: Sensitivity of A. thermophilum to selective agents. The class given is cell-based, Anaerocellum thermophilum. The conditions noted are these: selective agent in growth medium. As for the experimental part:
5× Base Salts: 140.00 g/L NaCl, 17.50 g/L, MgSO4.7H2O, 13.50 g/L MgCl2.6H2O, 1.65 g/L KCl, 1.25 g/L NH4Cl, 0.70 g/L CaCl2.2H2O. Liquid complex cellobiose (CC) media (pH 6.8): 200 mL/L 5× Base salts, 1 mL/L 1000× Trace minerals, 100 μL/L 100 mM Na2WO4*2H2O, 50 μL/L Resazurin (5 mg/mL), 5 mL/L 10% w/v Yeast Extract, 50 mL/L 10% w/v Casein hydrolysate, 35 mL/L 10% w/v Cellobiose, 0.5 g/L Cysteine, 0.5g Na2S, 1 g/L NaHCO3, 1 mL/L 1M K2HPO4 buffer. Solid complex cellobiose (CC) media: 1× media +1% phytagel solution (Sigma Chemical Company, St. Louis, Mo.). CC plates containing 5-fluoroorotic acid (5-FOA): to ensure complete 5-FOA solvation, 1M NaOH is dripped into the solution until a murky consistency is reached at around pH 10, cysteine is then used to lower the pH to 7, where the solution turns transparent. Simvastatin plates: solid complex cellobiose plates with the indicated amount of simvastatin added. A. thermophilum is sensitive to 8 millimolar (mM) 5-FOA, 30 mM hygromycin, 8 micromolar (μM) simvastatin, and 50 μM apramycin.
`CCC(C)(C)C(=O)O[C@H]1C[C@@H](C)C=C2C=C[C@H](C)[C@H](CC[C@@H]3C[C@@H](O)CC(=O)O3)[C@H]21` [simvastatin]: the “concentration to which A. thermophilum is sensitive” value was found to be 8 µM.
In the case of `CN[C@@H]1[C@@H](O[C@H]2O[C@H](CO)[C@@H](N)[C@H](O)[C@H]2O)OC2C[C@@H](N)[C@@H](O[C@H]3[C@H](O)[C@@H](O)[C@H](N)C[C@@H]3N)OC2[C@@H]1O` (stereo partly drawn) [apramycin] it was 50 µM; in that of `O=C(O)c1[nH]c(=O)[nH]c(=O)c1F` [5-FOA, 5-fluoroorotic acid], 8000 µM.

The values above are taken from patent publication US20110217740A1, “METHODS, MICROORGANISMS, AND COMPOSITIONS FOR PLANT BIOMASS PROCESSING” (University of Georgia Research, priority 2008, published 2011).
